# Measurements reported in patent publication US12569507B2, “CAR T-cells for the treatment of bone metastatic cancer” (H. Lee Moffitt Cancer Center and Research Institute, Inc., priority 2018, dated 2026).
# How the values were obtained:
# [1] = test system: CRPC C4-2BPSCA cell line; experiment: Cytotoxicity of γδ (CAR)-T cells with or without ZOL; assay type: cell-based; settings: ZOL 0.4 μM added to γδ CAR-T
# Method: FIGS. 11A and 11B show zoledronate enhances γδ (CAR)-T cells cytotoxic effect.
# (§1) γδ CAR-T cells recognize tumor cells via CAR and via TCR. The CAR- and TCR-mediated mechanisms of tumor cell recognition were tested using the CRPC C4-2BPSCA cell line. Cancer cells were treated with either untransduced (UT) control or CAR-expressing γδ T-cells, in the presence or absence of ZOL (0.4 μM). In presence of ZOL, control γδ T cells induced a cytotoxic effect at approx. 18 h, reflecting recognition of C4-2B-PSCA cells via TCR. […] The ability to induce a potent cytolytic effect with lesser cytokine production that can be modulated by ZOL is important since it may allow γδ (CAR-)T-cells to mediate more precise tumor killing, reducing the risk for complications related to massive cytokine release.
# [2] = test system: T47D breast cancer cells; experiment: IPP production in response to zoledronate, LC-MS/MS of cell extracts; assay type: cell-based; settings: 1 h, high-dose zoledronate
# Method: (§2) Following treatment of tumor cells with ZOL, IPP was measured in cell extracts by tandem LC-MS/MS, using AppCp as an internal standard. […] ZOL treatment was administered for 1 h or 18 h, at 2 different doses: 10 μM or 25 μM.
# (§3) In order to verify that zoledronate effectively induces IPP accumulation in a model system, C4-2B-PSCA-Luc human CRPC prostate cancer cells were treated with 10 μM or 25 μM of zoledronate, for 1 h or 18 h. Intracellular IPP levels were measured using a semi-quantitative mass spectrometry assay. T47D breast cancer cells were used as positive control, and Panc02.03 pancreatic cancer cells were used as negative controls.
# [3] = test system: Panc02.03 pancreatic cancer cells; experiment: as above; assay type: cell-based; settings: Panc02.03 cells, even after prolonged treatment with high doses
# Method: as §2, §3
# [4] = test system: C4-2B-PSCA cells; experiment: RTCA cytotoxicity with or without zoledronate; assay type: cell-based, human; settings: γδ T-cells in combination with zoledronate
# Method: (§4) Summary of RTCA analysis of C4-2B-PSCA, or control PSCA null C4-2B, cells co-cultured with γδ CAR-T cells, or untransduced controls (UT). FIGS. […] show tumor cells without ZOL pretreatment. FIGS. 6C and 6D show tumor cells with 2 h ZOL pretreatment. FIGS. 6A and 6C show tumor cell viability 2 h post co-culture. FIGS. 6B and 6D show 30 h post co-culture.
# (§5) The CAR- and TCR-mediated mechanism of tumor cell recognition were tested using the CRPC C4-2B cell line.
# [5] = test system: Parental C4-2B cells (PSCA null); experiment: RTCA cytotoxicity with or without zoledronate; assay type: cell-based, human; settings: γδ T-cells in combination with zoledronate
# Method: as §4, §5
# [6] = test system: C4-2B-PSCA cells; experiment: IFNγ ELISA of co-culture supernatants with increasing Zol; assay type: cell-based
# Method: IFNγ ELISA of co-culture supernatants of C4-2B-PSCA cells exposed to media (negative control) or the indicated T cells, in presence of increasing concentrations of Zol (0, 0.4 and 0.8 μM).
# as §1
# [7] = test system: γδ (CAR)-T cells; experiment: IL-2 secretion by γδ (CAR)-T cells; assay type: cell-based
# [8] = test system: PSCA-expressing C42B prostate cancer cells; experiment: Interferon-γ ELISA of γδ CAR-T coculture supernatants; assay type: cell-based
# Text: Four variants of the anti-PSCA CAR were generated containing either CD27 (CD27z), CD28 (CD28z), or 4-1BB (BBz) costimulation. The fourth variant contains a CD27 costimulatory domain where the TRAF-binding site has been replaced with an inert flexible linker (G4S). γδ CAR-T cells expressing either CAR variant (or GFP as controls) were generated, and cocultured with PSCA-expressing C42B prostate cancer cells, in presence or absence of zoledronate, at the indicated doses. The presence of interferon-γ in the supernatants (measured by ELISA) was used as a marker of T cell activation. CAR-expressing T cells (but not untransduced or GFP-transduced cells) reacted to target cells by producing interferon-γ (solid bars).
# [9] = test system: C4-2B luciferase expressing cells; experiment: Intratibial C4-2B bone metastatic CRPC model, γδ T-cells with zoledronate or vehicle; assay type: in vivo, NSG mice
# Text: FIGS. 7A to 7D show C4-2B cells inoculated into NSG mice and treated with either zoledronate (ZOL) or vehicle control. After establishment and randomization mice (n=15/group) were inoculated with 3.5×10^6 […]. Subsets of mice were removed from the study at 1, 3 and 5 days late. […] Number illustrate the percentage of γδ T-cells in the total marrow analysis over time. […] FIG. 7C is a graph showing RLUs quantitated over time and the growth rates calculated for each group. Asterisk indicates statistical significance. Mice at the final time point were assessed for γδ T-cell localization (CD3), apoptosis (cleaved caspase-3; CC3) and proliferation (phospho histone H3; pHH3). […] Arrows indicate positivity. DAPI was used as a nuclear counterstain.
# Next, the anti-tumor activity of γδ T-cells on established bone metastatic CRPC lesions in vivo was assessed. NSG (NOD.Cg-Prkdcscid112rgtm1Wjl/SzJ) immunocompromised mice were intratibially inoculated with C4-2B luciferase expressing cells (1×10^5) and once established were randomized in zoledronate (0.1 mg/Kg) or vehicle (saline) groups (n=25 per group) based on relative luminescence unit (RLU) measurement. One week later, mice received tail vein injections of human γδ T-cells (3.5×10^6/mouse).
# Groups of mice (n=5) were removed from the study 1, 3, 5 days subsequent to injection with tibias being flushed and assessed for human CD3 Vd2 content by flow cytometry. […] Bioluminescence was used as a correlate of tumor growth.
# [10] = tibias at study endpoint, vs control
smiles,measurement,setting,value
O=P(O)(O)C(O)(Cn1ccnc1)P(=O)(O)O [zoledronate],effect of ZOL on cytolytic activity of γδ CAR-T,[1],greatly enhanced
same,time to complete elimination of tumor cells,[1],≤ 45 h
same,Intracellular IPP levels,[2],detectable over background
same,Intracellular IPP levels,[3],did not produce IPP
same,"viability of tumor cells, early time point",[4],less evident
same,"viability of tumor cells, early time point",[5],notable reduction in the viability
same,effect of ZOL on IFNγ secretion,[6]; coculture of γδ (CAR-)T-cells with C4-2BPSCA cells,enhanced IFNγ secretion
same,effect of ZOL on IFNγ secretion,[6]; αβ T cells used,not observed
same,IL-2 secretion by γδ (CAR)-T cells,[7],increases IL-2 secretion
same,effect of zoledronate on target recognition by control γδ T cells,[8]; GFP-transduced and untransduced γδ T cells,induced target recognition by GFP-transduced and untransduced γδ T cells
same,effect of zoledronate on interferon production by CAR-T cells,"[8]; γδ CAR-T cells, coculture",enhanced interferon production by CAR-T cells
same,apoptotic (cleaved caspase-3) cancer cells,[9]; [10],increased
same,proliferative (phospho-Histone H3) cancer cells,[9]; [10],decreased
same,C4-2B growth rate (bioluminescence),"[9]; zoledronate group vs controls, with γδ T-cells",significantly slower
